Laboratory results taken from paper PMC5955586, “Transport of enniatin B and enniatin B1 across the blood-brain barrier and hints for neurotoxic effects in cerebral cells” (PLoS ONE, 2018).
pIC50: −log10 of the molar value. Where two headings read alike, the source gives them in different places.

Columns and labels:
Caco-2 cells = system: Caco-2 cells; set-up: method as in PMID 21640785; conditions: cited from earlier work
PBCEC = test: CCK-8 viability assay in PBCEC; format: cell-based, porcine; conditions: 48 h; for cytotoxic effects: 1 μM
Experimental: (§1) Primary porcine brain capillary endothelial cells (PBCEC) were kindly provided by the group of Prof. Dr. Langer, Institute of Pharmaceutical Technology, WWU Münster. Cellular viability was tested after treatment for 48 h using the CCK-8 assay, like applied for the cell lines but with minor modifications. Based on earlier protocols for the cultivation of PBCEC, the cryopreserved PBCEC were thawed at 37°C in a water bath, gently resuspended in culture medium (Medium 199 Earle’s with 100 U/mL penicillin, 100 μg/mL streptomycin, 100 μg/mL gentamycin, 4.1 mM L-glutamine and 10% fetal calf serum) and centrifugated at 220 × g at 20°C for 10 min. After removal of the supernatant, fresh complete medium was added and the cell pellet was resuspended twice and diluted to desired cell density. The cells were seeded on rat tail collagen coated 96-well tissue culture plates with 100 μL of the cell suspension per well. PBCEC were allowed to grow for 48 h at 37°C, 5% CO2 under saturated humidified conditions. Complete medium was exchanged for serum free medium (DMEM/Ham’s F-12 1:1 with 100 U/mL penicillin, 100 μg/mL streptomycin, 100 μg/mL gentamycin, 0.7 mM L-glutamine and 550 nM hydrocortisone (Sigma-Aldrich, Steinheim, Germany)). On day 5 in culture (96 h after seeding) half of the medium (50 μL) was removed and exchanged with 50 μL double concentrated ENN solution to reach the desired final concentrations in a concentration range from 0.1 μM to 10 μM. The cells were treated with the test substances in concentrations from 0.1 to 10 μM for 48 h. Due to the sensitivity of the primary cells, after completion of 48 h, the incubation medium was not exchanged but each well was supplemented with 10 μL of the CCK-8 solution and incubated for 70 min at 37°C, 5% CO2 in a saturated humidified atmosphere. Then the absorbance of the generated formazan dye was measured at 457 nm with 650 nm as reference wavelength. After subtracting the reference absorption as well as a blank absorption without cells, the viabilities were normalized to a solvent treated negative control (1% ACN).

[1] = CCK-8 viability assay in PBCEC; format: cell-based, porcine; conditions: pig, primary porcine brain capillary endothelial cells (PBCEC)
Experimental: as §1

HBMEC = test: CCK-8 viability assay in HBMEC; format: cell-based, human; conditions: 0.1 μM to 10 μM, 48 h
Experimental: To test the viability and to define the working range for later transport studies ENN B/ENN B1 stock solutions in ACN were diluted to the respective concentrations with serum free culture medium (1% ACN). An astrocytoma cell line, CCF-STTG1 (ATCC, Manassas, USA), and HBMEC cell line (human brain microvascular endothelial cells, kindly provided by Prof. Dr. Karch, Institute of Hygiene, University of Muenster (WWU Muenster)) were cultivated in RPMI 1640 medium supplemented with 100 U/mL penicillin, 100 μg/mL streptomycin, 2 mM L-glutamine and 10% (v/v) fetal calf serum (FCS) (medium for HBMEC additionally supplemented with 1 mM Na-pyruvate) using standardized culture conditions (37°C, 5% CO2, saturated humidified atmosphere). Culture medium was changed every 2–3 d, and the cells were subcultivated after trypsination when they reached a microscopic confluence of approximately 80%. […]
Briefly, the cells were seeded in 96-well tissue culture plates in a density of 1 × 10^4 cells/well (CCF-STTG1) and 4 × 10^3 cells/well (HBMEC), respectively. […] WST-8 dye is reduced to a water-soluble formazan by cellular dehydrogenases of viable cells, which increases the absorbance at λ = 457 nm and was measured with an Infinite M200 PRO microplate reader with Tecan i-control software version 1.7.1.12 (Tecan, Crailsheim, Germany). […]

Caco-2 = conditions: cited from earlier work; for absorption: Caco-2, 4 h exposure; for duodenal bioavailability in vitro: Caco-2 model, 48 h

SMILES	pIC50 (Caco-2 cells; read-out: IC50)	cytotoxic effects (PBCEC)	concentration with highly significant cytotoxicity (PBCEC)	viability at 48 h, 10 µM ([1]; 10 μM, read-out: relative viability)	effect on viability compared to solvent control (HBMEC)	absorption (Caco-2)	duodenal bioavailability in vitro (Caco-2)	IC50 (Caco-2 cells)	viability at 48 h ([1]; concentrations above 5 μM, read-out: cellular viability, minimum)
CC[C@H](C)[C@H]1C(=O)O[C@H](C(C)C)C(=O)N(C)[C@@H](C(C)C)C(=O)O[C@H](C(C)C)C(=O)N(C)[C@@H](C(C)C)C(=O)O[C@H](C(C)C)C(=O)N1C [ENN B1, enniatin B1]	4.94	did not show any cytotoxic effects	≥ 2500 nM	64%	no effect on viability	> 65%	> 50%		
CC(C)[C@H]1C(=O)O[C@H](C(C)C)C(=O)N(C)[C@@H](C(C)C)C(=O)O[C@H](C(C)C)C(=O)N(C)[C@@H](C(C)C)C(=O)O[C@H](C(C)C)C(=O)N1C [ENN B, enniatin B]		did not show any cytotoxic effects	above 5 μM		no effect on viability	> 65%	> 50%	no IC50 could be calculated	70%
